The test addresses RheoSwitch® (CHO-K1_RS-1 cells, firefly Luciferase reporter) (Choristoneura fumiferana, UniProt O77240). Nature of the test: in vitro gene switch assay (fLUC Luciferase expression, potency screen). The class given is cell-based. The source says:
Gene switch assays are disclosed, e.g., in U.S. Pat. Nos. 8,076,517; 7,456,315; 7,304,161; and 6,258,603.
CHO-K1 cells were stably transfected with a plasmid (RS-1, FIG. 1) coding for firefly Luciferase (fLUC) under the control of the RheoSwitch® resulting in the stable cell line CHO-K1_RS-1. A master cell bank was created containing approximately 100 vials at 5×10^6 cells per vial. One vial of CHO-K1_RS-1 was thawed and cultured for two weeks prior to each in vitro potency screening.
Twenty-four (24) hours prior to treatment with the control and test compounds the CHO-K1_RS-1 cells were seeded into white-opaque 384-well cell culture plates at 3,600 cells per well in 30 μl of culture medium. The cells were incubated in a humidified CO2 incubator at 37° C. until compound treatment.
Compounds were prepared at 25 mM in 100% dry DMSO and stored at room temperature in sealed 1 ml tubes prior to subsequent dilution and assay. On the day of cell treatment the tubes containing the control and test compounds were sorted and the ligands transferred to a 96-well polypropylene plate for subsequent dilution. The compounds were diluted in 100% dry DMSO in an 8-point, 10-fold dilution series ranging from 25 mM to 2.5 nM using the Biomek FX automated liquid handler.
The diluted compounds were then transferred to each well of 384-well polypropylene plate in quadruplicate resulting in a single 384-well plate with four replicates of each compound dilution in a different quadrant of the plate. Each well on the 384-well plate received 20 μl of diluted compound. The 384-well plates containing diluted compound and the plates containing cells in culture were loaded onto the Biomek FX and 30 nl of compound was delivered to each well containing cells using a 384-pin V&P Scientific Pin Tool. The resulting 1000-fold dilution (30 nl to 30 μl) generated a final dosing range of 25 μM to 2.5 pM in 0.1% DMSO. Two replicate plates were produced to supply a dedicated plate for the Luciferase expression assay and the APH cell viability assay.
The cells were incubated with the compound for 24 hours in a humidified CO2 incubator at 37° C. Following incubation, the cells were assayed for Luciferase expression (fLUC assay) using the Steady Glo assay from Promega. Cells were equilibrated to room temperature for 15 minutes prior to reagent addition. Thirty micro liters (30 μl) of assay reagent was added to each well of the 384-well plate using the Biomek FX. The reagent was incubated with the cells for 10-120 minutes prior to reading on a Molecular Devices Spectramax L luminometer. The assay reagents were prepared as per the manufacturer's instructions.
The Luciferase expression data was normalized to the baseline signal from cells treated with DMSO alone. The ratio of signal from treated cells to vehicle-treated cells was plotted and non-linear regress was performed using Graph Pad Prism software. EC50, (log)EC50 and Hill slope data was generated. Reporter gene expression, e.g., luciferase expression, serves as a proxy for the expression of a gene of interest. See, e.g., US 2009/0123441 and WO 2011/119773.

Where [1] appears, read: read-out: fLUC assay EC50 Run 1, 24 hours with compound, Run 1.
Setting [2] is: read-out: fLUC assay EC50 Run 2, 24 hours with compound, Run 2.
Where [3] appears, read: read-out: fLUC assay EC50, 24 hours with compound, 25 μM to 2.5 pM, figure in parentheses after a value not defined.

From patent publication US9127024B2 (Intrexon Corporation, priority 2013, dated 2015) come the findings set out here.

Read-outs that look alike come from different tables or passages of the source.

Chain of RheoSwitch® (CHO-K1_RS-1 cells, firefly Luciferase reporter) (O77240 1-513): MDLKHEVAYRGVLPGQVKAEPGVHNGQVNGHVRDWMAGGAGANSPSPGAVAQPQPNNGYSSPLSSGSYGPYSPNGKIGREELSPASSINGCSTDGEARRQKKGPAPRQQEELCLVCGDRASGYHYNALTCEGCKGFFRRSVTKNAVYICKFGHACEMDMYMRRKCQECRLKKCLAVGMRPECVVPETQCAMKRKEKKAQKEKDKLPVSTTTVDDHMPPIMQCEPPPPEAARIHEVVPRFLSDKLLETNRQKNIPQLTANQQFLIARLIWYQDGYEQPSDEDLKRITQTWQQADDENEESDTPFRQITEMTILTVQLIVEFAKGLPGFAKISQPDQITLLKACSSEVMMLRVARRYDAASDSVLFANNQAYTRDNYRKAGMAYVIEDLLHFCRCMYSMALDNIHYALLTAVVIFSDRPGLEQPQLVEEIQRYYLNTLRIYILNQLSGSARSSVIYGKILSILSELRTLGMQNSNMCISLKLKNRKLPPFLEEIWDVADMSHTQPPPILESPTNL

In the case of `CC[C@@H](N(NC(=O)c1ccc2c(c1C)OCCNB2O)C(=O)c1cc(C)cc(C)c1)C(C)(C)C` [Cpd. No. 92, (R)-N′-(3,5-dimethylbenzoyl)-N′-(2,2-dimethylpentan-3-yl)-1-hydroxy-6-methyl-1,2,3,4-tetrahydrobenzo[f][1,4,5]oxazaborepine-7-carbohydrazide], the EC50 (commonly the concentration giving half of the maximal effect) reads like this: under setting [1], 187 nM; under setting [2], 116 nM.

Consider `Cc1cc(C)cc(C(=O)N(NC(=O)c2ccc3c(c2C)OB(O)CCC3)C(C)(C)C)c1` [Cpd. No. 69], for which the EC50 under setting [3] stood at 203 nM.

As to `Cc1cc(Cl)cc(C(=O)N(CC(C)(C)C)NC(=O)c2ccc3c(c2C)OCCOB3O)c1` [compound 72], the EC50 under setting [3] amounted to 443 nM.

For `CC[C@H](N(NC(=O)c1ccc2c(c1C)OCCOB2O)C(=O)c1cc(C)cc(C)c1)C(C)(C)C` [compound 80], the EC50 under setting [3] worked out at 867 nM.

Take `CC[C@@H](N(NC(=O)c1ccc(B(O)O)cc1Cl)C(=O)c1cc(C)cc(C)c1)C(C)(C)C` [compound 20]: under setting [3], the EC50 came out at 183 nM.

For `CCC[C@@H](N(NC(=O)c1c(F)cc(B(O)O)cc1F)C(=O)c1cc(C)cc(C)c1)C(C)(C)C` [Cpd. No. 24, (R)-(4-(2-(3,5-dimethylbenzoyl)-2-(2,2-dimethylhexan-3-yl)hydrazinecarbonyl)-3,5-difluorophenyl)boronic acid], the EC50 under setting [3] worked out at 85.7 nM.

As to `CCCC(N(NC(=O)c1cccc(B2OC(C)(C)C(C)(C)O2)c1C)C(=O)c1cc(OC)ccc1OC)C(C)(C)C` (racemic) [compound 48], the EC50 under setting [3] came out at 22200 nM.

Consider `Cc1cc(C)cc(C(=O)N(NC(=O)c2ccc(B(O)O)cc2Cl)C(C)(C)C)c1` [compound 21], for which the concentration for a half-maximal effect (EC50) under setting [3] amounted to 1630 nM.

For `[2H]C([2H])([2H])c1cc(C(=O)N(NC(=O)c2ccc3c(c2F)B(O)OC3)[C@H](CC)C(C)(C)C)cc(C([2H])([2H])[2H])c1` [compound 60], the EC50 under setting [3] turned out to be 123 nM.

As for `Cc1cc(C)cc(C(=O)N(NC(=O)c2ccc3c(c2F)COB3O)C(c2ccccc2)C(C)(C)C)c1` (stereo not drawn) [Cpd. No. 89, N′-(2,2-dimethyl-1-phenylpropyl)-N′-(3,5-dimethylbenzoyl)-4-fluoro-1-hydroxy-1,3-dihydrobenzo[c][1,2]oxaborole-5-carbohydrazide], the EC50 was around 362 nM under setting [1] and around 303 nM under setting [2].

As to `COCc1ccc(C(=O)NN(C(=O)c2cc(C)cc(C)c2)C(C)(C)C)c(F)c1B(O)O` [Cpd. No. 88, (3-(2-(tert-butyl)-2-(3,5-dimethylbenzoyl)hydrazine-1-carbonyl)-2-fluoro-6-(methoxymethyl)phenyl)boronic acid], the EC50 came out at 667 nM under setting [1] and 840 nM under setting [2].

On to `CCCCB1OCc2ccc(C(=O)NN(C(=O)c3ccccc3)C(C)(C)C)c(F)c21` [Cpd. No. 64, N′-benzoyl-N′-(tert-butyl)-1-butyl-7-fluoro-1,3-dihydrobenzo[c][1,2]oxaborole-6-carbohydrazide], for which the EC50 under setting [3] was above 25000 nM.

`CCC[C@@H](N(NC(=O)c1ccc([B-](F)(F)F)cc1F)C(=O)c1cc(C)cc(C)c1)C(C)(C)C` [Cpd. No. 93, potassium (R)-(4-(2-(3,5-dimethylbenzoyl)-2-(2,2-dimethylhexan-3-yl)hydrazine-1-carbonyl)-3-fluorophenyl)trifluoroborate]: the concentration giving a half-maximal response (EC50) is, setting by setting: under setting [1], 66.8 nM; under setting [2], 122 nM.

As to `CCC[C@@H](N(NC(=O)c1ccc(CCCB(O)O)c(OC(F)F)c1C)C(=O)c1cc(C)cc(C)c1)C(C)(C)C` [Cpd. No. 28], under setting [3], the EC50 turned out to be 57.7 nM.

As to `COCc1ccc(C(=O)NN(C(=O)c2cc(C)cc(C)c2)C(C)(C)C)c(F)c1B1OC(C)(C)C(C)(C)O1` [Cpd. No. 94, N′-(tert-butyl)-N′-(3,5-dimethylbenzoyl)-2-fluoro-4-(methoxymethyl)-3-(4,4,5,5-tetramethyl-1,3,2-dioxaborolan-2-yl)benzohydrazide], the EC50 reads like this: under setting [1], 778 nM; under setting [2], 1650 nM.

For `[2H]C([2H])([2H])c1cc(C(=O)N(NC(=O)c2ccc3c(c2C)OCCOB3O)C(C)(C)CC)cc(C([2H])([2H])[2H])c1` [compound 77], the EC50 under setting [3] worked out at 181 nM.

In the case of `CCC(c1ccccc1)N(NC(=O)c1ccc(B(O)O)cc1F)C(=O)c1cc(C)cc(C)c1` (racemic) [compound 19], the 50% effective concentration (EC50) under setting [3] amounted to 258 nM.

With `[2H]C([2H])([2H])c1cc(C(=O)N(NC(=O)c2ccc3c(c2C)OCCOB3O)[C@@H](CC)C(C)(C)C)cc(C([2H])([2H])[2H])c1` [compound 81], the EC50 under setting [3] came to 564 nM.

As for `CCc1c(OC)cccc1C(=O)NN(C(=O)c1ccc(B(O)O)cc1)C(C)(C)C` [compound 40], the EC50 under setting [3] stood at 5250 nM.

Regarding `CC[C@@H](N(NC(=O)c1cccc(OC)c1C)C(=O)c1cc(C)cc(B(O)O)c1)C(C)(C)C` [Cpd. No. 33, (R)-(3-(1-(2,2-dimethylpentan-3-yl)-2-(3-methoxy-2-methylbenzoyl)hydrazinecarbonyl)-5-methylphenyl)boronic acid], the EC50 under setting [3] was found to be 191 nM.

Regarding `CCC(CF)N(NC(=O)c1ccc2c(c1C)OCCOB2O)C(=O)c1cc(C)cc(C)c1` (racemic) [Cpd. No. 82], the EC50 under setting [3] worked out at 2610 nM.

For the molecule `CCC(c1ccccc1)N(NC(=O)c1ccc(B(O)O)cc1F)C(=O)c1cc(C)cc(C)c1` (racemic) [compound 18], the EC50 under setting [3] stood at 203 nM.

Take `CCC(N(NC(=O)c1cccc(OC)c1C)C(=O)c1cccc(B(O)O)c1)C(C)(C)C` (racemic) [compound 32]: the 50% effective concentration (EC50) under setting [3] was 2880 nM.

In the case of `CCC[C@@H](N(NC(=O)c1ccc(B(O)O)cc1C(C)C)C(=O)c1cc(C)cc(C)c1)C(C)(C)C` [compound 10], the EC50 under setting [3] was 1240 nM.

Turning to `CC[C@@H](N(NC(=O)c1ccc(B(O)O)cc1F)C(=O)c1cc(C)cc(C)c1)C(C)(C)C` [Cpd. No. 85, (R)-(4-(2-(3,5-dimethylbenzoyl)-2-(2,2-dimethylpentan-3-yl)hydrazine-1-carbonyl)-3-fluorophenyl)boronic acid], the half-maximal effective concentration (EC50) under setting [1] was 69.4 nM and the EC50 under setting [2] was 66.6 nM.

Regarding `CC[C@H](N(NC(=O)c1ccc2c(c1)B(O)OC2)C(=O)c1cc(C)cc(C)c1)C(C)(C)C` [compound 53], under setting [3], the EC50 turned out to be 1000 nM.

As for `CCC(N(NC(=O)c1cccc(OC)c1C)C(=O)c1cc(B(O)O)cc([N+](=O)[O-])c1)C(C)(C)C` (racemic) [compound 36], under setting [3], the EC50 is above 25000 nM.

Consider `CCC[C@@H](N(NC(=O)c1ccc(CCCB(O)O)c(OC)c1C)C(=O)c1cc(C)cc(C)c1)C(C)(C)C` [Cpd. No. 27, (R)-(3-(4-(2-(3,5-dimethylbenzoyl)-2-(2,2-dimethylhexan-3-yl)hydrazinecarbonyl)-2-methoxy-3-methyl-phenyl)propyl)boronic acid], for which the EC50 under setting [3] turned out to be 270 nM.

In the case of `CCC(N(NC(=O)c1ccc2c(c1)B(O)OC2)C(=O)c1cc(C)cc(C)c1)C(C)(C)C` (racemic) [Cpd. No. 51], under setting [3], the EC50 stood at 432 nM.

For `[2H]C([2H])([2H])c1cc(C(=O)N(NC(=O)c2ccc(B(O)O)cc2F)[C@H](CC)C(C)(C)C)cc(C([2H])([2H])[2H])c1` [compound 15], the EC50 under setting [3] worked out at 52.3 nM.

On to `CCC[C@@H](N(NC(=O)c1ccc(CCCB2OC(C)(C)C(C)(C)O2)c(OC(F)F)c1C)C(=O)c1cc(C)cc(C)c1)C(C)(C)C` [compound 30], for which the EC50 under setting [3] is 50.8 nM.

On to `Cc1cc(C)cc(C(=O)N(CC(C)(C)C)NC(=O)c2ccc3c(c2C)OCCOB3O)c1` [compound 71], for which the EC50 under setting [3] came to 430 nM.

Regarding `Cc1cc(C)cc(C(=O)N(NC(=O)c2ccc(B(O)O)cc2)C(C)(C)C)c1` [Cpd. No. 7], the EC50 under setting [3] is 1010 nM.

Regarding `CC[C@@H](N(NC(=O)c1ccc2c(c1)B(O)OC2)C(=O)c1cc(C)cc(C)c1)C(C)(C)C` [compound 52], the 50% effective concentration (EC50) under setting [3] was 287 nM.

Take `CC[C@@H](N(NC(=O)c1ccc(COC)c(B2OC(C)(C)C(C)(C)O2)c1F)C(=O)c1cc(C)cc(C)c1)C(C)(C)C` [Cpd. No. 87, (R)-N′-(3,5-dimethylbenzoyl)-N′-(2,2 dimethylpentan-3-yl)-2-fluoro-4-(methoxymethyl)-3-(4,4,5,5-tetramethyl-1,3,2-dioxaborolan-2-yl)benzohydrazide]: the EC50 worked out at 47.6 nM under setting [1] and 96.4 nM under setting [2].
